{"source": "ChEMBL document CHEMBL5465560", "about": "“Selectivity Literature for EUbOPEN Chemogenomic Library” (2024)", "key": {"[1]": {"molecular_target": "T1, Receptor-interacting serine/threonine-protein kinase 1 (Homo sapiens) (UniProt Q13546)", "T1 sequence (whole entry)": "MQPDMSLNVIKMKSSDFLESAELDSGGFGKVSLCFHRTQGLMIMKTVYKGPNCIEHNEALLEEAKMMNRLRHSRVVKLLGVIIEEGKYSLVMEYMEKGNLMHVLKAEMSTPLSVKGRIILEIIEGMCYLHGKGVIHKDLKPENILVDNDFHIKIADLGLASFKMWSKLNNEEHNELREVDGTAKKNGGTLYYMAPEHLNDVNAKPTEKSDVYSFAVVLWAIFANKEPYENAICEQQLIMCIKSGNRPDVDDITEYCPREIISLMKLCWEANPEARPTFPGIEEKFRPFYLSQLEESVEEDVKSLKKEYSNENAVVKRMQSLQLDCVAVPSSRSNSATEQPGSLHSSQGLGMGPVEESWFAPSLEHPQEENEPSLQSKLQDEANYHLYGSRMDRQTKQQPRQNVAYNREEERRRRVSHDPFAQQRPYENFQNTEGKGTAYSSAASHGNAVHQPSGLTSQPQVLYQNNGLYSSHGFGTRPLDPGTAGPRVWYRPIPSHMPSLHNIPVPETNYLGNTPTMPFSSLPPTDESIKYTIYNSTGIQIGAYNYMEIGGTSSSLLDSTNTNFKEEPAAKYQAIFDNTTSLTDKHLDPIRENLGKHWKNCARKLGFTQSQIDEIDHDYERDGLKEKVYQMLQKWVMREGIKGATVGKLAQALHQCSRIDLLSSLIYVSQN", "experiment": "Selectivity interaction (KinomeScan (DiscoverX)) EUB0000092b RIPK1", "details": "at 10 µM"}, "[2]": {"molecular_target": "Homeodomain-interacting protein kinase 2 (Homo sapiens, UniProt Q9H2X6)", "sequence (Q9H2X6 whole entry, looked up)": "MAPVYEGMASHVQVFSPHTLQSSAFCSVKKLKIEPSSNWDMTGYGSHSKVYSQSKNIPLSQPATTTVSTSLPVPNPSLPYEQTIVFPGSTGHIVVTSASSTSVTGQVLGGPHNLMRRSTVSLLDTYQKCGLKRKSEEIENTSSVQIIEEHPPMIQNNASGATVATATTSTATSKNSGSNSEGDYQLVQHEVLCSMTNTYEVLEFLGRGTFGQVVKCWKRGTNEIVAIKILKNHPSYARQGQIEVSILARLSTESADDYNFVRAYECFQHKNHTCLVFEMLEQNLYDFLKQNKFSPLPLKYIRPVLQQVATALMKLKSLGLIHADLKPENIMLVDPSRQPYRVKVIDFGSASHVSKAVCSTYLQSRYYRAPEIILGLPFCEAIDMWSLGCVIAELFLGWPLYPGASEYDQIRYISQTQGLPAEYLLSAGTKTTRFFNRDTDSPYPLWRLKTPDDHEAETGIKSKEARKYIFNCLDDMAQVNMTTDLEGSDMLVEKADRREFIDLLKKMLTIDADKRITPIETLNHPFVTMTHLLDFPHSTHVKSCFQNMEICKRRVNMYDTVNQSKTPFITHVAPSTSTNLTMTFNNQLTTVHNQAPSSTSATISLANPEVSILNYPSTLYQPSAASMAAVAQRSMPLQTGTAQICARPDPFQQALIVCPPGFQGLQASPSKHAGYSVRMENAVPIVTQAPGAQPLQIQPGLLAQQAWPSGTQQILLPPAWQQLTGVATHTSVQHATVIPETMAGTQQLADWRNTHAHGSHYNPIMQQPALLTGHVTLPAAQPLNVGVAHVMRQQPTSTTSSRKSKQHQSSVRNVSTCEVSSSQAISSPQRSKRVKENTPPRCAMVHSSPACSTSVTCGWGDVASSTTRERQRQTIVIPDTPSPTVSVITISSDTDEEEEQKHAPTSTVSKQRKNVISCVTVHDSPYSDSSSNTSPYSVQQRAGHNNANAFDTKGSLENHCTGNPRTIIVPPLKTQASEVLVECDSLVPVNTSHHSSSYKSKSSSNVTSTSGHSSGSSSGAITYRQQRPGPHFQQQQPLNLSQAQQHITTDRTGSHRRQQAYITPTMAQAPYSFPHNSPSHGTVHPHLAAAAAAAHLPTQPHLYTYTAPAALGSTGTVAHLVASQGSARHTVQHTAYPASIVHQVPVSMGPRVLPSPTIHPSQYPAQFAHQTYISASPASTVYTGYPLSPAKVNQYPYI", "experiment": "Selectivity interaction (Kinase panel (Z-LYTE Assay)) EUB0001632a HIPK2", "details": "at 10 µM"}, "[3]": {"molecular_target": "T2, Inhibitor of nuclear factor kappa-B kinase subunit epsilon (Homo sapiens) (UniProt Q14164)", "T2 sequence (whole entry)": "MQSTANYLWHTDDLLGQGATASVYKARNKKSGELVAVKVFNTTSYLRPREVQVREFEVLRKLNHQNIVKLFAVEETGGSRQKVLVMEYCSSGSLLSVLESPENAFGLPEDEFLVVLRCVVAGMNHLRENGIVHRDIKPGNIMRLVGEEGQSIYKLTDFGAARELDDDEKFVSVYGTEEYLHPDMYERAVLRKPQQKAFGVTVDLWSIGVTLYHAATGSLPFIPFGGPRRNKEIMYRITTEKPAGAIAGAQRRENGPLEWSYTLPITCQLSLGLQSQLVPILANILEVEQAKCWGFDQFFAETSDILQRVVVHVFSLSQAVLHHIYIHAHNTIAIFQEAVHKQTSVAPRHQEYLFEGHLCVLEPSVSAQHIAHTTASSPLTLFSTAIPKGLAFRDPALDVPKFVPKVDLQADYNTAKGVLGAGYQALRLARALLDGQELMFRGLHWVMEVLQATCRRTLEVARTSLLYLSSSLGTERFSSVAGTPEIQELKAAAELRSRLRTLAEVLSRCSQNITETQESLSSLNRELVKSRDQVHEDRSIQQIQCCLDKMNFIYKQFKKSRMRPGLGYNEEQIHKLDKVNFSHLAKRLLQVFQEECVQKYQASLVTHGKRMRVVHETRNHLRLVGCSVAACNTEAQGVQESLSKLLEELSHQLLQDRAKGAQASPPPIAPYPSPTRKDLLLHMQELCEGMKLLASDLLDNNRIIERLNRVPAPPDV", "experiment": "Selectivity interaction (ActivX KiNativ screen (kinase selectivity in THP-1 cell lysates)) EUB0000639a IKBKE", "assay_type": "subcellular", "details": "lysate, at 0.04 µM"}, "[4]": {"molecular_target": "Tyrosine-protein kinase receptor UFO (Homo sapiens) (UniProt P30530)", "sequence (P30530 whole entry)": "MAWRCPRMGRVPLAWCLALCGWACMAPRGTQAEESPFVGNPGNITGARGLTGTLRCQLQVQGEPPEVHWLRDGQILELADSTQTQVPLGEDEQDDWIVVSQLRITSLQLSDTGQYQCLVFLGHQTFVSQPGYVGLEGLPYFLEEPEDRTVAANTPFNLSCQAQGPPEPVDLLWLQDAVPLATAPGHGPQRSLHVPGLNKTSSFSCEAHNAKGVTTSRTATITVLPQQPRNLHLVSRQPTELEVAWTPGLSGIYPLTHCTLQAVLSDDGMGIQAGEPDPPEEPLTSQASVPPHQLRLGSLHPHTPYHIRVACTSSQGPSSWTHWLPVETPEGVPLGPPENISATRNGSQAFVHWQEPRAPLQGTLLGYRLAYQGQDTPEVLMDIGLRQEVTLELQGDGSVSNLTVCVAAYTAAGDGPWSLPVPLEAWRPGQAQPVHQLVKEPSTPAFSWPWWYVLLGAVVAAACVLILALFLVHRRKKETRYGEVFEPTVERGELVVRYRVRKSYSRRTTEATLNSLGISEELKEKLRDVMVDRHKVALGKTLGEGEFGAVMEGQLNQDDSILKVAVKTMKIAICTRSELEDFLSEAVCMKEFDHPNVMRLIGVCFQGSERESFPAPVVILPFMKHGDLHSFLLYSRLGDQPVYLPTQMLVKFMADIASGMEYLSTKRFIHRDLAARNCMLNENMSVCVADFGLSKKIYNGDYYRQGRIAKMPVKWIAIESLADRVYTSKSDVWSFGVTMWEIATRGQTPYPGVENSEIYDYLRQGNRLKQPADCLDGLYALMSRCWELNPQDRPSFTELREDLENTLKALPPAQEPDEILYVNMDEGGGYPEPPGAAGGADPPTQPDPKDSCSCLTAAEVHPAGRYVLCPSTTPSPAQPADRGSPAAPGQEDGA", "experiment": "Selectivity interaction (KinomeScan (DiscoverX)) EUB0000618a AXL", "details": "at 10 µM"}, "[5]": {"molecular_target": "Mitogen-activated protein kinase 9 (Homo sapiens, UniProt P45984)", "sequence (P45984 whole entry, looked up)": "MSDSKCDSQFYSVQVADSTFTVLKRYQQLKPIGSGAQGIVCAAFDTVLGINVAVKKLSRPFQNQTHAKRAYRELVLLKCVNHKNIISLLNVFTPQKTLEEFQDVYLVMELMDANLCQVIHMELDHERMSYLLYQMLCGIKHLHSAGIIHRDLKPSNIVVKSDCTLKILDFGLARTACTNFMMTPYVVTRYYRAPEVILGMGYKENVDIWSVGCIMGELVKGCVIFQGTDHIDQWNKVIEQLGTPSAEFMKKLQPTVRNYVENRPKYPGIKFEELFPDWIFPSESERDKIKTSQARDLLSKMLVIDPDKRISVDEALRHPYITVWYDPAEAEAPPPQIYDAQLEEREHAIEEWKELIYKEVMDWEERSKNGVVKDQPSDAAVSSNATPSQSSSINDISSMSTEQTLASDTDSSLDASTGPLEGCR", "experiment": "Selectivity interaction (ActivX KiNativ screen (ex vivo kinase selectivity in human PBMCs)) EUB0001619a MAPK9", "assay_type": "cell-based", "details": "PBMC, at 1 µM"}, "[6]": {"molecular_target": "T3, Inhibitor of nuclear factor kappa-B kinase subunit beta (Homo sapiens) (UniProt O14920)", "T3 sequence (whole entry)": "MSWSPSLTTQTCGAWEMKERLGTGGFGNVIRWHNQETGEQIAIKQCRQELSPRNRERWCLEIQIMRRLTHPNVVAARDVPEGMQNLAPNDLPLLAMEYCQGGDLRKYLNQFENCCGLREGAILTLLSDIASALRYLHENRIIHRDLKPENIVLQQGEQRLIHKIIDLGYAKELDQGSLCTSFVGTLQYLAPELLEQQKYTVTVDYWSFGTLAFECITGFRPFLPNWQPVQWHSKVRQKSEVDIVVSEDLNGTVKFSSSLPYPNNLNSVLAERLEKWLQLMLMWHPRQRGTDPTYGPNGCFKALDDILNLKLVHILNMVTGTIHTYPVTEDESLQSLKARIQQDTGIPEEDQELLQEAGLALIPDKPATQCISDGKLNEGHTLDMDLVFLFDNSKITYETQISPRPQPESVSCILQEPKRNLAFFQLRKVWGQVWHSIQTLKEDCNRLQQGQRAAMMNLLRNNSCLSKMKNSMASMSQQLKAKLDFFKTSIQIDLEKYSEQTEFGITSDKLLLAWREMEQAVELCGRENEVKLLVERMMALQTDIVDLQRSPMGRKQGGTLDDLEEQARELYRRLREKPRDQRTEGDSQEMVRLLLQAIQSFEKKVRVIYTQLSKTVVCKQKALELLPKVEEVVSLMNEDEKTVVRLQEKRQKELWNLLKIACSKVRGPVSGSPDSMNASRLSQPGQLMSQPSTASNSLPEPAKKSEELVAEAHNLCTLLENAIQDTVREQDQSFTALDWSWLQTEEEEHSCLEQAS", "experiment": "Selectivity interaction (ActivX KiNativ screen (ex vivo kinase selectivity in human PBMCs)) EUB0001619a IKBKB", "assay_type": "cell-based", "details": "PBMC, at 1 µM"}}}
{"smiles": "CCC(=O)N1CCN(c2ccc(-n3c(=O)ccc4cnc5ccc(-c6cnc7ccccc7c6)cc5c43)cc2C(F)(F)F)CC1", "values": [{"measurement": "% of control", "setting": "[1]", "value": 1.9, "unit": "%"}]}
{"smiles": "Cn1cc(-n2cnc3c(NCc4nc5cc(Cl)c(Cl)cc5[nH]4)nc(N4CCOCC4)nc32)cn1", "values": [{"measurement": "% of control", "setting": "[2]", "value": 5.72, "unit": "%"}]}
{"smiles": "CC[C@@H]1[C@H](F)C(=O)N[C@@H]1COc1nccc2cc(C(N)=O)c(OC)cc12", "note": "[ZIMLOVISERTIB]", "values": [{"measurement": "% of inhibition", "setting": "[3]", "value": -22.2, "unit": "%"}]}
{"smiles": "O[C@H]1CC[C@H](Nc2ncc3nc(Nc4c(F)cc(F)cc4F)n([C@H]4CCOC4)c3n2)CC1", "values": [{"measurement": "% of control", "setting": "[4]", "value": 86, "unit": "%"}]}
{"smiles": "N#Cc1cccc(-c2c[nH]c3ncnc(N4CCOCC4)c23)c1", "values": [{"measurement": "% of inhibition", "setting": "[5]", "value": 5, "unit": "%"}, {"measurement": "% of inhibition", "setting": "[6]", "value": -16, "unit": "%"}]}
